Entries after “also recorded” stand apart in the source; their conditions may differ.
Key:
[1] = system: polar body extruded oocytes; experiment: Confocal laser microscopy for microfilaments and chromosome analysis; format: cell-based, human
Protocol: For localization of microfilaments, 39 polar body extruded oocytes (25 oocytes 48 hours after maturation in control medium and 14 oocytes after inhibitor removal) were fixed with 2.5% glutaraldehyde in cacodylate buffer for at least 2 hours, washed with PBS/1% BSA, placed into 0.1% Triton X-100 for 5 min and rinsed again with PBS. Afterwards, oocytes were placed into Texas red-labeled phalloidin staining f-actin diluted 1:40 PBS for f-actin and Pico green 1:2000 PBS for DNA staining.

[2] = system: Human oocytes (COCs); experiment: Meiosis arrest (nuclear maturation stage GV/GVBD/PB) of COCs cultured with DDMP; format: cell-based; settings: for oocytes still arrested at the GV-stage: 72 hours in DDMP
Protocol: (§1) Patients included in this study were undergoing fertility treatment and were primed with variable doses of gonadotropins while being carefully monitored using serum hormone and vaginal ultrasound monitoring (Human Reproduction 7 (1992), 49 et seq.). Collection of oocytes cumulus complexes (COCs) from different follicle sizes was performed as follows: 1°) during laparoscopic surgery, 2°) aspirated from patients with stimulated ovaries undergoing follicle reduction before intrauterine insemination (to avoid multiple gestation due to multiple ovulation) (Albano et al, 2001) or 3°) during ovum pick up after having aspirated the larger follicles (>15 mm) destinated for IVF treatment (Human Reproduction 7 (1992), 49 et seq.). Basically, these aspirations yielded two types of COC: a first group that had never been exposed to LH activity (pre-hCG) and a second group of follicles 36 h after an exposure to hCG (injected) or endogenous LH (spontaneous LH peak). When possible, follicle diameters were recorded by vaginal ultrasound measurement. COCs used in this study were retrieved from follicles with diameters between 6 and 14 mm.
Human oocytes aspiration was performed by ultrasound-guided transvaginal follicle aspiration using a single lumen needle (Cook, K-OPS-1230-VUB, Switzerland AG) after paracervical infiltration with a local anesthetic. The aspiration pressure used was reduced from the usual 100 mmHg for recovery of mature oocytes to 60 mmHg. Follicles were flushed using HEPES-buffered Earle's medium at least three times.
(§2) At the time of oocyte retrieval only the COCs classified as I or II were placed in culture.
Twenty-four hours later, oocyte stages were recorded and oocytes showing a clear polar body extrusion were removed from culture. After 48 hours, all oocytes were assessed and GV, GVBD and polar body extruded ones were recorded.
(§3) The basal medium used for oocyte culture was D-MEM (D-5280, Life Technologies, Merelbeke, Belgium) with 2 mM Glutamax-1, NaHCO3 (2 g/L) supplemented with 10 mIU/ml FSH (Gonal-F®, kindly donated by Ares Serono, Geneva, Switzerland), 100 ng/ml IGF-I (R&D, UK), 5 ng/ml insulin, 5 ng/ml selenium, 5 μg/ml transferrin (Life technologies, Merelbeke, Belgium) and 0.1% human serum albumin (CAF-DCF, Brussels, Belgium). 17β-E2 (Sigma, Bornem, Belgium) was diluted in ethanol and added to oil to reach a final concentration of 1 μg/ml in the 10 μl medium droplets underneath (this concentration was measured using specific radioimmunoassay). Microdroplets of 10 μl medium, were covered with 2 ml of oil. A refreshment of […] conditioned medium was performed each 24 hours. All cultures were carried out at 37° C. in humidified atmosphere in an incubator gassed with 5% CO2 in air.
(§4) DDMP was added at a 10 μM final concentration (0.1% DMSO). Directly after aspiration, single COCs were washed in flushing medium (D-MEM with HEPES) and placed into […] droplets under oil. COCs were randomised over two culture conditions: with and without DDMP. Oocytes cultured with DDMP for 24 hours, 48 hours and 72 hours were studied for reversal of meiosis arrest by washing out the inhibitor. Reversal of PDE 3 inhibition was performed by mechanical denudation of the remaining somatic cells and placing the oocytes in the conditioned medium for an additional 24-30 h.
(§5) Evaluation of cumulus morphology expansion in culture related to follicle treatment, resumption of maturation, kinetics of GVBD and polar body extrusion were analysed using the χ^2test and Fisher's exact test for comparison between control and DDMP treated groups. Statistical significance was considered when P<0.05.

[3] = system: Human oocytes arrested at GV-stage; experiment: Reversal of meiosis arrest after washing out the inhibitor; format: cell-based
Protocol: DDMP was added at a 10 μM final concentration (0.1% DMSO). Directly after aspiration, single COCs were washed in flushing medium (D-MEM with HEPES) and placed into […] droplets under oil. COCs were randomised over two culture conditions: with and without DDMP. Oocytes cultured with DDMP for 24 hours, 48 hours and 72 hours were studied for reversal of meiosis arrest by washing out the inhibitor. […]
as §5

[4] = system: cumulus-corona cells of COCs; experiment: Cumulus cell expansion (COC types I-IV) during culture in the presence of DDMP; format: cell-based, human
Protocol: as §1
The COCs were evaluated immediately after aspiration and after 24 hours and 48 hours culture and classified as follows: type (I), compact mass of 3-5 layers of granulosa cells; type (II), expanded distal layers of granulosa cells (cumulus), but a compact proximal granulosa cell layer; type (III), expanded distal (cumulus) and proximal (corona cells) layers of granulosa cells; and type (IV) partially denuded oocytes due to expanded granulosa cells.
as §2, §3, §4, §5

[5] = system: Human oocytes (COCs); experiment: Light and electron microscopy of oocytes arrested by DDMP; format: cell-based
Protocol: During evaluation at 24 hours and 48 hours culture, part of the oocytes with and without DDMP were fixed for EM analysis.
A total of 48 oocytes (4 at time of retrieval, 21 after 24 hours, 20 after 48 hours and 3 after 72 hours culture) were fixed in glutaraldehyde 2.5% in cacodylate buffer at pH 7.3 for at least 2 hours at 4° C. at time 0 h, 24 hours and 48 hours of maturation. All oocytes were embedded individually. Afterwards, they were postfixed in OsO4 1% in H2O for 30 min, stained with uranyl acetate 2% in veronal buffer for 60 min, dehydrated through graded alcohols, embedded in SPURR (Taab; Bodson, Liège, Belgium) and left to polymerize overnight at 70° C.
Semithin sections of 0.5 μm and ultrathin sections of 75 nm were made at approximately 30 levels (range 15-35). The semithin sections were mounted on glass slides and stained with toluidine blue for light microscopical guidance. […]
In order to analyse the effect of PDE 3 inhibition on nuclear and cytoplasm organization, ultrastructural observation was performed at the different culture times in oocytes arrested or not by DDMP. The oocytes analyzed did originate from follicles with diameter between 8-12 mm.

[6] = system: isolated oocytes; settings: rodents; cited from earlier work
[7] = inhibitor removal day 2 (48 hours in DDMP), post-hCG, 11 oocytes
[8] = inhibitor removal day 2 (48 hours in DDMP), pre-hCG, 11 oocytes
[9] = inhibitor removal day 3 (72 hours in DDMP), post-hCG, 10 oocytes
[10] = inhibitor removal day 3 (72 hours in DDMP), pre-hCG, 13 oocytes
[11] = post-hCG COCs, 24 hours culture in DDMP 10 μM
[12] = pre-hCG COCs, 24 hours culture in DDMP 10 μM

With `COc1cc2cc(C3=NNC(=O)CC3C)sc2cc1OC` (stereo not shown) [DDMP, 4,5-dihydro-6-(5,6-dimethoxybenzo[b]thien-2-yl)-5-methyl-3(2H)-pyridazinone] the “number of oocytes presenting the M II plate 24-30 hours after inhibitor removal” value ([1]; 3 out of 3 pre-hCG and 9 out of 11 post-hCG) was “Twelve”, the “number of oocytes with nuclei forming a clump of chromosomes at place of metaphase plate” value ([1]; 24-30 hours after inhibitor removal) was “Two” and the “M II oocytes with well-aligned chromosomes positioned perpendicular to the oolema” value ([1]; 24-30 hours after inhibitor removal, control 80.0%) was 83.3%. For the same compound, the “time up to which nuclear arrest could be held on” value ([2]; DDMP 10 μM) was “up to 72 hours”, the “time for which resumption of meiosis was blocked / meiotic arrest in GV maintained” value ([2]; DDMP 10 μM, COCs from antral follicles) was “at least 48 hours” and the “oocytes remaining at GV-stage” value ([2]; post-hCG COCs (n=42), 24 hours, DDMP 10 μM, control 22.5%) was 92.9%. For the same compound, the “COCs classified type II at retrieval that remained arrested at the GV-stage” value ([2]; post-hCG COCs of type II at retrieval, 48 hours culture with DDMP) was 77.6%, the “oocytes that extruded a visible polar body (PB)” value ([2]; post-hCG COCs, 24 hours, DDMP 10 μM, control 10.0%) was 2.4% and the “oocytes at the GV-stage” value ([2]; post-hCG COCs, 48 hours, DDMP 10 μM, control 6.0%) was 83.3%. For the same compound, the “oocytes at GVBD” value ([2]; post-hCG COCs, 48 hours, DDMP 10 μM, control 12.1%) was 8.3%, the “oocytes at PB” value ([2]; post-hCG COCs, 48 hours, DDMP 10 μM, control 81.8%) was 5.6% and the “oocytes still arrested at the GV-stage” value ([2]; post-hCG, 10 out of 15) was 66.6%. The “oocytes remaining at GV-stage” value ([2]; pre-hCG COCs (n=39), 24 hours, DDMP 10 μM, control 24.3%) was “all oocytes remained at GV-stage”, the “oocytes at GVBD” value ([2]; pre-hCG COCs, 48 hours, DDMP 10 μM, control 12.9%) was 5.5% and the “oocytes remaining at GV-stage” value ([2]; pre-hCG COCs, 48 hours, DDMP 10 μM, control 19.3%) was 88.9%. The “oocytes at PB” value ([2]; pre-hCG COCs, 48 hours, DDMP 10 μM, control 64.5%) was 2.8%, the “oocytes still arrested at the GV-stage” value ([2]; pre-hCG, 16 out of 19) was 84.2% and the “number of oocytes that progressed to GVBD after inhibitor wash-out” value (shortened to “number … after inhibitor wash-out”) ([3]; 48 hours in DDMP, post-hCG, 11 oocytes, 24-30 h in control medium) was 11. The “number … after inhibitor wash-out” value ([3]; 48 hours in DDMP, pre-hCG, 11 oocytes, 24-30 h in control medium) was 4, the “number … after inhibitor wash-out” value ([3]; 72 hours in DDMP, pre-hCG, 13 oocytes, 24 to 30 hours in conditioned medium) was 7 and the “PB (%) 24-30 hours after DDMP removal” value [3, 7] was 54%. The “number of oocytes at GVBD (arrested at this stage) 24-30 hours after DDMP removal” value (“number of oocytes at GVBD” for short) [3, 7] was 5, the “number of oocytes at PB 24-30 hours after DDMP removal” value (from here on “number of oocytes at PB 24-30 hours”) [3, 7] was 6 and the “PB (%) 24-30 hours after DDMP removal” value [3, 8] was 27%. The “number of oocytes at GV 24-30 hours after DDMP removal” value [3, 8] was 7, the “number of oocytes at GVBD” value [3, 8] was 1 and the “number of oocytes at PB 24-30 hours” value [3, 8] was 3. For the same compound, the “PB (%) 24-30 hours after DDMP removal” value [3, 9] was 100%, the “number of oocytes at PB 24-30 hours” value [3, 9] was 10 and the “PB (%) 24-30 hours after DDMP removal” value [3, 10] was 46%. For the same compound, the “number of oocytes at GV 24-30 hours after DDMP removal” value [3, 10] was 6, the “number of oocytes at GVBD” value [3, 10] was 1 and the “number of oocytes at PB 24-30 hours” value [3, 10] was 6. The “resumption of meiosis after inhibitor removal” value ([3]; oocytes arrested with DDMP 10 μM) was “capable of resuming meiosis within the normal time frame”, the “influence on expansion and mucification pattern of COC / loss of coupling between somatic cells and oocyte” value ([4]; DDMP 10 μM versus control medium, before and during culture) was “not modified; also recorded: no influence” and the “proportion of COCs classified type I” value ([4]; post-hCG COCs of the DDMP group, at retrieval (0 hour, baseline)) was 48.8%. The “oocytes that had lost connection with cumulus cells (type IV)” value [4, 11] was 7.1%, the “proportion of COCs classified type I” value [4, 11] was 4.7% and the “proportion of COCs classified type II” value [4, 11] was 57.1%. For the same compound, the “proportion of COCs classified type III” value [4, 11] was 30.9%, the “oocytes that had lost connections with the somatic cells (type IV)” value ([4]; post-hCG COCs, 48 hours culture in DDMP 10 μM) was 62.1% and the “proportion of COCs classified type I” value ([4]; pre-hCG COCs of the DDMP group, at retrieval (0 hour, baseline)) was 74.4%. For the same compound, the “proportion of COCs classified type I” value [4, 12] was 25.6%, the “proportion of COCs classified type II” value [4, 12] was 56.4% and the “proportion of COCs classified type III” value [4, 12] was 15.4%. The “oocytes that had lost their connections with the cumulus cells (type IV)” value ([4]; pre-hCG COCs, 48 hours culture in DDMP 10 μM) was 22.2%, the “ultrastructural morphological signs of oocyte degeneration” value ([5]; DDMP 10 μM, at least 48 hours culture) was “without ultrastructural morphological signs of oocyte degeneration” and the “morphological aspect of COC (degeneration)” value ([5]; arrested in vitro for 72 hours in presence of DDMP (FIG. 11)) was “degenerative aspect”. For the same compound, the “reversibility of blocking effects” value [6] was “fully reversible”.
